Values joined by “and” are separate entries in the source; they are usually repeats but may differ in a detail not shown here. Identical values can stand only once.
Key:
Assay in all cases: Pre-emergence action against weeds (greenhouse)
Type in all cases: in vivo
PAPRH (Papaver rhoeas) = tested on: PAPRH (Papaver rhoeas)
Source text: (§1) Depending on the trial conditions, the soil of the standard field soil is sterile or not sterile.
(§2) The amount of water used for spray application was 300l/ha.
PAPRH (Papaver rhoeas)—Poppy, common
(§3) Insofar as herbicidal effects of the compositions according to the invention compared to mixtures of the prior art or compared to components applied individually against economically important mono- and dicotyledonous harmful plants were the centre of attention, the synergistic herbicidal activities were calculated using Colby's formula (cf. S. R. Colby; Weeds 15 (1967), 20-22): […]

AVEFA (Avenafatua) = tested on: AVEFA (Avenafatua)
Source text: as §1, §2
AVEFA (Avenafatua)—Wild oat
as §3

BROST (Bromus sterilis) = tested on: BROST (Bromus sterilis)
Source text: as §1, §2
BROST (Bromus sterilis)—Bromegrass, barren
as §3

[1] = tested on: RAPRA (Raphanus raphanistrum)
Source text: as §1, §2
RAPRA (Raphanus raphanistrum)—Charlock, jointed
as §3

[2] = tested on: ALOMY—resistant (Alopecurus myosuroides)
Source text: as §1, §2
ALOMY—resistant (Alopecurus myosuroides) resistant to herbicidally active compounds of the HRAC groups A and B; population mixture of field origin having increased metabolic resistance (IMR) and some target site resistance (TSR).
as §3

[3] = tested on: LOLRI—sensitive (Lolium rigidum)
Source text: as §1, §2
LOLRI—sensitive (Lolium rigidum) sensitive to customary herbicidally active compounds.
as §3

[4] = tested on: ALOMY—sensitive (Alopecurus myosuroides)
Source text: as §1, §2
ALOMY—sensitive (Alopecurus myosuroides) sensitive to customary herbicidally active compounds.
as §3

HORVS (Hordeum vulgare) = tested on: HORVS (Hordeum vulgare)
Source text: as §1, §2
HORVS (Hordeum vulgare)—Barley, spring
as §3

EMEAU (Emex australis) = tested on: EMEAU (Emex australis)
Source text: as §1, §2
EMEAU (Emex australis)—Cathead
as §3

[5] = tested on: VERHE (Veronica hederaefolia)
Source text: as §1, §2
VERHE (Veronica hederaefolia)—Speedwell, iveleaf
as §3

BRSNW (Brassica napus) = tested on: BRSNW (Brassica napus)
Source text: as §1, §2
BRSNW (Brassica napus)—Rape, winter
as §3

[6] = tested on: LOLRI—resistant (Lolium rigidum)
Source text: as §1, §2
LOLRI—resistant (Lolium rigidum) resistant to herbicidally active compounds of the HRAC groups A and B; population mixture of field origin having increased metabolic resistance (IMR) and some target site resistance (TSR).
as §3

[7] = tested on: TRZAS (Triticum aestivum)
Source text: as §1, §2
TRZAS (Triticum aestivum)—Wheat, spring
as §3

CENCY (Centaurea cyanus) = tested on: CENCY (Centaurea cyanus)
Source text: as §1, §2
CENCY (Centaurea cyanus)—Cornflower
as §3

[8] = tested on: SORHA (Sorghum halepense)
Source text: as §1, §2
SORHA (Sorghum halepense)—Johnsongrass
as §3

[9] = pre-emergence, dose 100 g AS/ha

CC1(C)CON(Cc2ccc(Cl)cc2Cl)C1=O [2-[(2,4-dichlorophenyl)methyl]-4,4-dimethyl-3-isoxazolidinone]
50%: herbicidal action (AVEFA (Avenafatua); 100 g AS/ha) | herbicidal action ([1]; 200 g AS/ha) | herbicidal action (HORVS (Hordeum vulgare); 250 g AS/ha) | herbicidal action ([7]; 250 g AS/ha)
75: Herbicidal action LOLRI resistant [6, 9]
10%: herbicidal action (EMEAU (Emex australis); 50 g AS/ha) | herbicidal action (CENCY (Centaurea cyanus); 50 g AS/ha)
50: Herbicidal action AVEFA (AVEFA (Avenafatua); [9])
30%: herbicidal action (BROST (Bromus sterilis); 200 g AS/ha) | herbicidal action ([3]; 25 g AS/ha) | herbicidal action ([8]; 50 g AS/ha)
80%: herbicidal action (AVEFA (Avenafatua); 500 g AS/ha) | herbicidal action ([1]; 400 g AS/ha) | herbicidal action ([2]; 200 g AS/ha) | herbicidal action ([5]; 100 g AS/ha) | herbicidal action ([6]; 200 g AS/ha) | herbicidal action ([6]; 250 g AS/ha)
80: Herbicidal action VERHE [5, 9]
20: Herbicidal action BROST (BROST (Bromus sterilis); [9]) | Herbicidal action EMEAU (EMEAU (Emex australis); [9])
0%: herbicidal action (AVEFA (Avenafatua); 10 g AS/ha) | herbicidal action (BROST (Bromus sterilis); 10 g AS/ha) | herbicidal action (BROST (Bromus sterilis); 25 g AS/ha) | herbicidal action (BROST (Bromus sterilis); 50 g AS/ha) | herbicidal action ([1]; 10 g AS/ha) | herbicidal action ([2]; 10 g AS/ha) | herbicidal action ([2]; 25 g AS/ha) | herbicidal action ([3]; 10 g AS/ha) | herbicidal action ([4]; 10 g AS/ha) | herbicidal action ([4]; 25 g AS/ha) | herbicidal action (HORVS (Hordeum vulgare); 10 g AS/ha) | herbicidal action (EMEAU (Emex australis); 10 g AS/ha) | herbicidal action (EMEAU (Emex australis); 25 g AS/ha) | herbicidal action (BRSNW (Brassica napus); 10 g AS/ha) | herbicidal action (BRSNW (Brassica napus); 25 g AS/ha) | herbicidal action (BRSNW (Brassica napus); 50 g AS/ha) | herbicidal action (BRSNW (Brassica napus); 100 g AS/ha) | herbicidal action ([6]; 10 g AS/ha) | herbicidal action ([7]; 10 g AS/ha) | herbicidal action ([7]; 25 g AS/ha) | herbicidal action ([7]; 50 g AS/ha) | herbicidal action (CENCY (Centaurea cyanus); 10 g AS/ha) | herbicidal action (CENCY (Centaurea cyanus); 25 g AS/ha) | herbicidal action ([8]; 10 g AS/ha) | herbicidal action ([8]; 25 g AS/ha)
15%: herbicidal action (AVEFA (Avenafatua); 50 g AS/ha) | herbicidal action (HORVS (Hordeum vulgare); 100 g AS/ha) | herbicidal action ([5]; 10 g AS/ha)
60% and 30%: herbicidal action ([6]; 50 g AS/ha)
94%: herbicidal action ([6]; 400 g AS/ha) | herbicidal action ([6]; 500 g AS/ha)
70: Herbicidal action LOLRI sensitive [3, 9] | Herbicidal action CENCY (CENCY (Centaurea cyanus); [9])
20%: herbicidal action (BROST (Bromus sterilis); 100 g AS/ha) | herbicidal action ([1]; 50 g AS/ha) | herbicidal action ([4]; 50 g AS/ha) | herbicidal action (BRSNW (Brassica napus); 250 g AS/ha) | herbicidal action (BRSNW (Brassica napus); 400 g AS/ha) | herbicidal action (BRSNW (Brassica napus); 500 g AS/ha)
15: Herbicidal action (crop damage) HORVS (HORVS (Hordeum vulgare); [9])
5: Herbicidal action (crop damage) TRZAS [7, 9]
70% and 75%: herbicidal action ([6]; 100 g AS/ha)
90%: herbicidal action ([1]; 500 g AS/ha) | herbicidal action ([3]; 200 g AS/ha) | herbicidal action ([5]; 200 g AS/ha)
88%: herbicidal action (CENCY (Centaurea cyanus); 200 g AS/ha)
40%: herbicidal action ([1]; 100 g AS/ha) | herbicidal action (HORVS (Hordeum vulgare); 200 g AS/ha) | herbicidal action (EMEAU (Emex australis); 200 g AS/ha) | herbicidal action ([5]; 25 g AS/ha) | herbicidal action ([7]; 200 g AS/ha) | herbicidal action ([8]; 100 g AS/ha)
93%: herbicidal action ([2]; 250 g AS/ha) | herbicidal action ([4]; 250 g AS/ha)
60%: herbicidal action ([1]; 250 g AS/ha) | herbicidal action ([2]; 100 g AS/ha) | herbicidal action ([4]; 100 g AS/ha) | herbicidal action (HORVS (Hordeum vulgare); 400 g AS/ha) | herbicidal action (HORVS (Hordeum vulgare); 500 g AS/ha) | herbicidal action (EMEAU (Emex australis); 250 g AS/ha) | herbicidal action ([7]; 400 g AS/ha) | herbicidal action ([8]; 200 g AS/ha)
75%: herbicidal action (AVEFA (Avenafatua); 250 g AS/ha) | herbicidal action (AVEFA (Avenafatua); 400 g AS/ha) | herbicidal action (BROST (Bromus sterilis); 500 g AS/ha)
40: Herbicidal action RAPRA [1, 9] | Herbicidal action SORHA [8, 9]
65%: herbicidal action (BROST (Bromus sterilis); 250 g AS/ha)
60: Herbicidal action ALOMY resistant [2, 9] | Herbicidal action ALOMY sensitive [4, 9]
0: Herbicidal action BRSNW (BRSNW (Brassica napus); [9])
95%: herbicidal action (PAPRH (Papaver rhoeas); 250 g AS/ha) | herbicidal action (PAPRH (Papaver rhoeas); 400 g AS/ha) | herbicidal action (PAPRH (Papaver rhoeas); 500 g AS/ha) | herbicidal action ([2]; 400 g AS/ha) | herbicidal action ([2]; 500 g AS/ha) | herbicidal action ([3]; 250 g AS/ha) | herbicidal action ([3]; 400 g AS/ha) | herbicidal action ([3]; 500 g AS/ha) | herbicidal action ([4]; 200 g AS/ha) | herbicidal action ([4]; 400 g AS/ha) | herbicidal action ([4]; 500 g AS/ha) | herbicidal action ([5]; 250 g AS/ha) | herbicidal action ([5]; 400 g AS/ha) | herbicidal action ([5]; 500 g AS/ha)
70%: herbicidal action (AVEFA (Avenafatua); 200 g AS/ha) | herbicidal action (BROST (Bromus sterilis); 400 g AS/ha) | herbicidal action ([3]; 50 g AS/ha) | herbicidal action ([3]; 100 g AS/ha) | herbicidal action (EMEAU (Emex australis); 400 g AS/ha) | herbicidal action (EMEAU (Emex australis); 500 g AS/ha) | herbicidal action ([5]; 50 g AS/ha) | herbicidal action ([7]; 500 g AS/ha) | herbicidal action (CENCY (Centaurea cyanus); 100 g AS/ha)
2%: herbicidal action (HORVS (Hordeum vulgare); 25 g AS/ha)
10% and 20%: herbicidal action ([2]; 50 g AS/ha)
5%: herbicidal action (AVEFA (Avenafatua); 25 g AS/ha) | herbicidal action ([1]; 25 g AS/ha) | herbicidal action (HORVS (Hordeum vulgare); 50 g AS/ha) | herbicidal action (BRSNW (Brassica napus); 200 g AS/ha) | herbicidal action ([6]; 25 g AS/ha) | herbicidal action ([7]; 100 g AS/ha)

From patent US20210137117A1, “HERBICIDAL MIXTURES” (Bayer Aktiengesellschaft, priority 2017, published 2021)
